Where a SMILES comes first, the peptide text is derived from it. The star is where a group is joined. Octanoyl = CCCCCCCC(=O)*
Columns and labels:
[1] = Partition coefficient, log K of the compound in n-BuOH-HOAc-H2O; type: physicochemical
[2] = Antagonist activity at angiotensin 2 receptor in guinea pig ileum assessed as inhibition of angiotensin-2-induced effect after 15 mins; type: tissue-based; details: Cavia porcellus, 0.25 h, read-out: pA2 (converted)
[3] = organism: Cavia porcellus; test: Antagonist activity at angiotensin 2 receptor in guinea pig ileum assessed as concentration required to reduction of angiotensin-2-induced maximum response by one-half after 15 mins; type: tissue-based
[4] = test system: Cavia porcellus; test: Antagonist activity at angiotensin 2 receptor in guinea pig ileum assessed as time required for recovery of organ's response at 2 X 10^-7 M administered 3 mins prior to angiotensin-2 challenge followed by compound washout at 2 mins post challenge; type: tissue-based
[5] = molecular target: T1, Angiotensin II receptor (Rattus norvegicus, UniProt P29089+P25095+P35351); test: Antagonist activity at angiotensin 2 receptor in rat uterus assessed as inhibition of angiotensin-2-induced effect after 15 mins; type: tissue-based
T1 sequence (P29089 whole entry): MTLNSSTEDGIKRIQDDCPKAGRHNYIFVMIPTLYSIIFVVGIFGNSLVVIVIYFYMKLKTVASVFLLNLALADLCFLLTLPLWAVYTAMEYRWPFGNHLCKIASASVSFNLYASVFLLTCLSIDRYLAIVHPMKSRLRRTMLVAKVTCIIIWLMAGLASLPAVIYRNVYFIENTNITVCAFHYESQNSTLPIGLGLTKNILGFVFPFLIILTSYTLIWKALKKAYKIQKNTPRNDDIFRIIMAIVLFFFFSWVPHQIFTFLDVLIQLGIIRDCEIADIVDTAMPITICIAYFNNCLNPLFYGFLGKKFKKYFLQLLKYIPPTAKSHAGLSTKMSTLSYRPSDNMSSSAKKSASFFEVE
T1 sequence (P25095 whole entry): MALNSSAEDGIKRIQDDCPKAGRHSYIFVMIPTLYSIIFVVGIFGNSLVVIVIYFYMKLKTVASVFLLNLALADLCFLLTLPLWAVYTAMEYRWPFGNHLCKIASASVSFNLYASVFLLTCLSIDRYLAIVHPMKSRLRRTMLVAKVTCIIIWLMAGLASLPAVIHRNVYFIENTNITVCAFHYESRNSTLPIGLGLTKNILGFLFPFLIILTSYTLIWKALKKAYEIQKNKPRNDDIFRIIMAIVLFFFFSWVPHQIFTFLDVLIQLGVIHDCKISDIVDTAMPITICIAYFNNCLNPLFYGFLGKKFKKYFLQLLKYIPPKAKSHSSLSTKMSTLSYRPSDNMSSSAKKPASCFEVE
T1 sequence (P35351 whole entry): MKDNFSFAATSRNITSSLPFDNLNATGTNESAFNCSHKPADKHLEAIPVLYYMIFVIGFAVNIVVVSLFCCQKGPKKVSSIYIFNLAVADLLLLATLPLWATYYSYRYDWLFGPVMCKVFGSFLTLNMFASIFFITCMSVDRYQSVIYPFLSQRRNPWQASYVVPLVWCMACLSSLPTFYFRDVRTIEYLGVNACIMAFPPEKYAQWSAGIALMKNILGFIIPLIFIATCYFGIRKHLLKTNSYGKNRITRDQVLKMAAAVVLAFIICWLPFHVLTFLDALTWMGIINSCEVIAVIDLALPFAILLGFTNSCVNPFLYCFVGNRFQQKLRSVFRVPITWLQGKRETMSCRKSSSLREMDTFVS

[6] = molecular target: T2, Angiotensin II receptor (Rattus norvegicus) (UniProt P29089+P25095+P35351); test: Antagonist activity at angiotensin 2 receptor in rat uterus assessed as concentration required to reduce maximum response induced by agonist by one-half after 15 mins; type: tissue-based
[7] = molecular target: T2, Angiotensin II receptor (Rattus norvegicus); test: Antagonist activity at angiotensin 2 receptor in rat uterus assessed as time required for recovery of organ's response at 2 X 10^-7 M administered 3 mins prior to angiotensin-2 challenge followed by compound washout at 2 mins post challenge; type: tissue-based
[8] = organism: Cavia porcellus; test: Agonist activity at angiotensin 2 receptor in guinea pig ileum relative to angiotensin-2; type: tissue-based
[9] = molecular target: T2, Angiotensin II receptor (Rattus norvegicus); test: Agonist activity at angiotensin 2 receptor in rat uterus relative to angiotensin-2; type: tissue-based
[10] = test system: Rattus norvegicus; test: Antihypertensive activity in iv dosed rat assessed as dose required to inhibit angiotensin-2-induced increase in blood pressure; type: functional
[11] = test system: Rattus norvegicus; test: Antihypertensive activity in iv dosed rat assessed as time required for recovery of angiotensin-2-induced increase in blood pressure; type: functional, organism-based
[12] = test system: Rattus norvegicus; test: Increase in blood pressure in iv dosed rat relative to angiotensin-2; type: functional
[13] = test system: Cavia porcellus; test: Antagonist activity at angiotensin 2 receptor in guinea pig ileum assessed as time required for recovery of organ's response at 2 X 10^-8 M administered 3 mins prior to angiotensin-2 challenge followed by compound washout at 2 mins post challenge; type: tissue-based
[14] = molecular target: T2, Angiotensin II receptor (Rattus norvegicus); test: Antagonist activity at angiotensin 2 receptor in rat uterus assessed as time required for recovery of organ's response at 2 X 10^-8 M administered 3 mins prior to angiotensin-2 challenge followed by compound washout at 5 mins post challenge; type: tissue-based

| K [1] | pA2 [5] | pAh [6] | T1/2 [7] [min] | Activity [9] [%] | T1/2 [14] [min] | Compound | Kb [2] [nM] | pAh [3] | T1/2 [4] [min] | Activity [8] [%] | Activity [10] [ug/min.kg] | T1/2 [11] [min] | Activity [12] [%] | T1/2 [13] [min] |
| --- | --- | --- | --- | --- | --- | --- | --- | --- | --- | --- | --- | --- | --- | --- |
| 7 | 8.42 | 6 | 6.6 | 0.21 |  | CCCCCCCC(=O)N[C@@H](CC(=O)O)C(=O)N[C@@H](CCCNC(=N)N)C(=O)N[C@H](C(=O)N[C@@H](Cc1ccc(O)cc1)C(=O)N[C@H](C(=O)N[C@@H](Cc1cnc[nH]1)C(=O)N1CCC[C@H]1C(=O)N[C@@H](CC(C)C)C(=O)O)[C@@H](C)CC)C(C)C (Octanoyl-DRVYIHPL-OH) | 22.9 | 6.2 | 1.7 | 0.15 | 2.3 | 12 | 0.1 |  |
| 0.18 | 8.33 | 6.2 |  | 0.025 | 28.1 | H-DRVYIHPL-OH | 1.2 | 7.3 |  | 0.016 | 10.2 | 12 | 0.09 | 3.8 |

Source: ChEMBL document CHEMBL3244031, “Synthesis of octanoyl[8-leucyl]angiotensin II, a lipophilic angiotensin antagonist” (J Med Chem, 1977)
